Earlier results on two molecules are cited in patent US20070099863A1, “Compounds for the treatment of demyelinating and autoimmune diseases” (priority 2003, published 2007).

Each structure is given as a SMILES string. Counter-ions that a name gives are not always drawn.

For data set [1], the target named is T1, P2X4 (Homo sapiens, UniProt Q99571).
T1 sequence (Q99571 1-388): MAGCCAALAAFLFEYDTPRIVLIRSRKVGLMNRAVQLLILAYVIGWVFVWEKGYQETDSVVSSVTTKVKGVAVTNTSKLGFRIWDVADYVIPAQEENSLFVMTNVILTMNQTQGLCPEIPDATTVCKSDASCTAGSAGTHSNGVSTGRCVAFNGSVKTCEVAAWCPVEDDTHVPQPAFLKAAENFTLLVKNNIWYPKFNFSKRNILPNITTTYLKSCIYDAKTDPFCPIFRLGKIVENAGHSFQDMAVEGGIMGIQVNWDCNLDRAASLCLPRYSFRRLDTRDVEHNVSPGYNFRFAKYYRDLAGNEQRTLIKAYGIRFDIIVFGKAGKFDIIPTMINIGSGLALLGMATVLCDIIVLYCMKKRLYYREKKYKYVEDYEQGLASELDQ
The settings on record: P2X4 subtype; read-out: IC50 in relation to P2X4; cited from earlier work.

Data set [2] deals with T2, P2X7 (Homo sapiens, UniProt Q99572).
T2 sequence (Q99572 1-595): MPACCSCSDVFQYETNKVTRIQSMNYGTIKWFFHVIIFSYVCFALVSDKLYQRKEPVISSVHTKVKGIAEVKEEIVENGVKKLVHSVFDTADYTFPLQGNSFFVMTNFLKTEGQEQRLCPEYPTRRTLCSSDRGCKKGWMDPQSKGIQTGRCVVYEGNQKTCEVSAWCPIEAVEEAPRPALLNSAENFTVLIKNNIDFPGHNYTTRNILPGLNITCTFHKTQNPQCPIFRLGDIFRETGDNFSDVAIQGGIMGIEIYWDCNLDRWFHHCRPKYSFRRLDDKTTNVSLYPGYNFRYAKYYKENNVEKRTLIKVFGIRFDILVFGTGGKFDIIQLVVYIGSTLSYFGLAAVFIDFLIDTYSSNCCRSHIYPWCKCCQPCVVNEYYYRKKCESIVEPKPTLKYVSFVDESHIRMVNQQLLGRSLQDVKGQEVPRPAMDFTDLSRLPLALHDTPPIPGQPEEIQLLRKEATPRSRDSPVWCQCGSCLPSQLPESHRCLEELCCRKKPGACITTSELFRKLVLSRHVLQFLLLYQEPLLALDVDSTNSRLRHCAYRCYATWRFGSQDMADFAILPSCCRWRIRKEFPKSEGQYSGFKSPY
Particulars: P2X7 subtype; read-out: IC50 in relation to P2X7; cited from earlier work.

Data set [3] concerns the target P2X5 (Homo sapiens, UniProt Q93086). The settings on record: P2X5 subtype; read-out: IC50 in relation to P2X5; cited from earlier work.

P2X5, sequence (Q93086 whole entry, species assumed): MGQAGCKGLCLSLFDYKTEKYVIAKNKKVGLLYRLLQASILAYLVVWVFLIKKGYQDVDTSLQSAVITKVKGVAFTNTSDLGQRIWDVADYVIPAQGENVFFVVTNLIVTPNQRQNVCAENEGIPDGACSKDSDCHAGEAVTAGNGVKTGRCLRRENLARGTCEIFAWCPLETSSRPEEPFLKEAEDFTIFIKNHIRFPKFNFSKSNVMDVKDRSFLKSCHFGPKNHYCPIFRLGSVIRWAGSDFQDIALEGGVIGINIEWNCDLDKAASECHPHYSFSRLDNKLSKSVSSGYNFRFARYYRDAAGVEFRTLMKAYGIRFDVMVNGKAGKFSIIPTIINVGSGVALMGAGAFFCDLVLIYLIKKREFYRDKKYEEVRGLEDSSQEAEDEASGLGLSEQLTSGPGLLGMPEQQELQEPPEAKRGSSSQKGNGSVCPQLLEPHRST

One may read the IC50 as the midpoint of a concentration-inhibition curve. In the case of `CCOc1ccc(Nc2ccc(/C(=C3C=C/C(=[N+](/CC)Cc4cccc(S(=O)(=O)[O-])c4)C=C/3C)c3ccc(N(CC)Cc4cccc(S(=O)(=O)O)c4)cc3C)cc2)cc1` [BBG, Coomassie brilliant blue G], the IC50 in data set [1] was over 10 µM; in data set [2] it was 0.01 µM.

For the molecule `Cc1ccc(C(=O)Nc2ccc(S(=O)(=O)O)c3cc(S(=O)(=O)O)cc(S(=O)(=O)O)c23)cc1NC(=O)c1cccc(NC(=O)Nc2cccc(C(=O)Nc3cc(C(=O)Nc4ccc(S(=O)(=O)O)c5cc(S(=O)(=O)O)cc(S(=O)(=O)O)c45)ccc3C)c2)c1` [Suramin, hexasodium salt of 8,8′-[carbonylbis[imino-3,1-phenylenecarbonylimino(4-methyl-3,1-phenylene)carbonylimino]]bisnaphthalene-1,3,5-trisulphonic acid], the IC50 was 178 µM in data set [1] and 4 µM in data set [3].
